# Measurements as given in patent US20190298661A1, “Transdermal Delivery of Phenethylamine Monoamine Releasers” (priority 2016, published 2019).
# Where two headings read alike, the source gives them in different places.
# What was measured:
# SERT = SERT (Rattus norvegicus, UniProt P31652); assay: Release activity of phenethylamine analogs, SERT; assay type: biochemical
# [1] = www.chemspider.com; cited from earlier work
# DAT [2] = assay: Release activity of phenethylamine analogs, DAT; assay type: biochemical; settings: ratio of EC50 values
# NET = assay: Release activity of phenethylamine analogs, NET; assay type: biochemical; settings: ratio of EC50 values
# [3] = In vitro skin permeation study, vertical static Franz-type diffusion cells, 24 h; assay type: in vitro ADME, human; settings: for flux / flux with 10% lauric acid versus propylene glycol alone: base 20 mg/mL; for calculated passive flux over 24 hours: base form, 40 mg/ml; for percent permeated through the skin within 24 hours: base; for average amount permeated across dermatomed human skin: liquid base form; for flux enhancement compared to propylene glycol only group: base 40 mg/mL
# Experimental: To test this prediction, skin permeation studies were conducted with 4-benzylpiperidine, phenmetrazine, and PAL-353 (3-flouroamphetamine) Based on the required dosing and technical capacity of patch technology, one objective was to develop a 24-hour patch. As such, the skin permeation studies were performed for 24 hours using vertical static Franz-type diffusion cells.
# The recirculating water bath system was maintained at 37° C. to bring the skin surface temperature to 32° C. Each Franz cell comprised of a donor compartment containing the drug and a receiver compartment containing 1×PBS at pH 7.4 to ensure a diffusion gradient, with human dermatomed skin (described below) clamped between the two compartments. Permeation was followed by detection of drug in the receiver compartment using an alliance HPLC Waters 2695 Separations Module attached to a Waters UV detector system. A prodigy 5 u ODS (2) 150×4.60 mm 5 micron column with mobile phase of acetonitrile and water (0.05% TFA) at a flow rate of 1 mL/min and an injection volume 20 μL, with a retention time of 5.5 min, was detected at 259 nm wavelength. The same permeation and HPLC protocol was followed with 6 Franz cells (n=6) for each condition.
# PAL-353 (3-flouroamphetamine) (10 mg/mL in a vehicle suitable for the enhancement technique being used) was placed in the donor compartment of the Franz cell.
# The permeation of phenmetrazine and PAL-353 (3-flouroamphetamine) (3-FA) through dermatomed human cadaver skin was further studied using static Franz diffusion cells. Permeated drugs were quantified using a validated HPLC-UV method. The passive permeation of phenmetrazine and 3-FA was evaluated at the concentrations of 10 (phenmetrazine fumarate), 20 (phenmetrazine and 3-FA bases) and 40 (phenmetrazine and 3-FA bases) mg/mL in propylene glycol (PG). Further, the enhancement effect of oleic acid (5% w/w), oleyl alcohol (5% and 10% w/w) and lauric acid (10% w/w) on the permeation of phenmetrazine and 3-FA bases at 20 and 40 mg/mL was investigated.
# Chemical permeation enhancers belonging to fatty acid or fatty alcohol group, oleic acid, oleyl alcohol and lauric acid were incorporated to improve the permeation rate of phenmetrazine (40 mg/mL) and 3-flouroamphetamine (20 mg/mL).
# Iontophoretic delivery of PAL-353 across dermatomed human skin was also investigated. The donor chamber was filled with 500 μL of PAL-353 solution (10 mg/ml; 54% of saturation solubility) in 10 mM PBS, pH 7.4 containing 25 mM sodium chloride (n=4). The pH of the donor formulation as measured using glass electrode was around 4.0. Anodal iontophoresis was conducted where silver (anode) and silver chloride electrodes (cathode) were placed in the donor chamber and sampling port of the receptor chamber, respectively. It was ensured that there was no contact between the anode and skin in order to avoid skin damage due to high local voltage. The electrodes were then coupled in series to a source of constant current supply (Keithley 2400 Source Meter®, Keithley Instruments Inc., Cleveland, Ohio, USA). A current density of 0.5 mA/cm^2 was applied for 4 h. However, the total duration of the permeation study was 24 h and sampling was done at 0 h, 1 h, 2 h, 3 h, 4 h, 5 h, 6 h, 8 h, 22 h and 24 h.
# This study was repeated keeping all the parameters same except that no current was applied (n=4). This group served as the passive control for comparison of the iontophoretic delivery of PAL-353 across human skin. Also, in a separate study, for these two groups, after 4 h, the formulations were removed and current was stopped in the iontophoresis group. Skin resistance was then measured using the procedure explained in section 2.2.3. Results have been presented as mean±SE.
# Lag time was calculated as the x-intercept of the extrapolated linear portion of the permeation profiles (cumulative drug permeated/cm^2 plotted against the time). […]
# EPIDERM = assay: Skin irritation potential of formulations, EPIDERM 3 dimensional model; settings: two formulations reaching therapeutic flux
# Experimental: The skin irritation potential of our formulations were tested using EPIDERM™, which is a 3 dimensional model used to assess skin irritation.
# DAT [4] = target: DAT (Rattus norvegicus, UniProt P23977); assay: Release activity of phenethylamine analogs, DAT; assay type: biochemical
# [5] = 100 mg of 2% HPC gel containing 10 mg of drug, 24 h
# Chain of SERT (P31652 whole entry): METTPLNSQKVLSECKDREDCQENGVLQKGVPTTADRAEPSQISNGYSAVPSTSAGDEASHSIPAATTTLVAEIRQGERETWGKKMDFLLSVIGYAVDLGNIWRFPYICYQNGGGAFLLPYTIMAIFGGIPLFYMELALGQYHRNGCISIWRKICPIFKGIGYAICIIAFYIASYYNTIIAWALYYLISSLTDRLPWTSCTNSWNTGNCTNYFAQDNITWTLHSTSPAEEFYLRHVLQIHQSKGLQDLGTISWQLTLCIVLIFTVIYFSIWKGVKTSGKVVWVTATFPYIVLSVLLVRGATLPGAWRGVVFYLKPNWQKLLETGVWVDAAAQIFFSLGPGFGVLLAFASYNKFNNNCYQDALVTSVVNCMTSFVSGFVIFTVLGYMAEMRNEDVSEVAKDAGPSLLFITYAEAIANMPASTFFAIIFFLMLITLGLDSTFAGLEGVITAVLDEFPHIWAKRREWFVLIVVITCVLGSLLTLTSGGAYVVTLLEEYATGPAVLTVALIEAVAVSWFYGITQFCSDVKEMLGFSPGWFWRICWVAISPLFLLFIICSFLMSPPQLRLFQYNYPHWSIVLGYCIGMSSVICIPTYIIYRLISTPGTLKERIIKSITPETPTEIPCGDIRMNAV
# Chain of DAT (Rattus norvegicus, UniProt P23977) (P23977 whole entry): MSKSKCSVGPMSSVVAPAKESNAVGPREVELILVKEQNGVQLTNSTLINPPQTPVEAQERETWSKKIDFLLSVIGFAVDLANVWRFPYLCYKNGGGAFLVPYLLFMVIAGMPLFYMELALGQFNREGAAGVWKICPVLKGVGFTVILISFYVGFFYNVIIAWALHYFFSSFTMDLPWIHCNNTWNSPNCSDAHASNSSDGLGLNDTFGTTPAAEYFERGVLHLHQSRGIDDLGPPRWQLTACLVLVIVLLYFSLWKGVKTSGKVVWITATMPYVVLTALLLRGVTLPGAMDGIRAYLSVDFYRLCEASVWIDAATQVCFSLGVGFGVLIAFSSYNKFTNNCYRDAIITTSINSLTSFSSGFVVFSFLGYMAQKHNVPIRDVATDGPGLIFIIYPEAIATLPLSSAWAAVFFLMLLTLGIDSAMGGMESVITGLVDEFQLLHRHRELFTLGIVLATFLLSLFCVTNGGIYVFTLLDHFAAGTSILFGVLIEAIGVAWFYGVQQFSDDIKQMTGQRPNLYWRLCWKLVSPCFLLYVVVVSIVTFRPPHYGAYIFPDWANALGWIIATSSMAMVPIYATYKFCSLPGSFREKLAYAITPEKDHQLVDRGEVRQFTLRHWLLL
molecule,measurement,setting,value
CC(N)Cc1ccc(C(C)C)cc1 (centres unmarked) [PAL-334],EC50,SERT,0.0792 µM
C[C@H]1[C@H](c2ccccc2)OCCN1C [phendimetrazine],log P,[1],2.17
COc1ccc(CC(C)N)cc1 (centres unmarked) [PAL-162],SERT/DA,DAT [2],0.1
same,EC50,SERT,0.0633 µM
same,SERT/NET,NET,0.4
"CC(N)Cc1cccc(F)c1 (centres unmarked) [PAL-353, 3-fluoroamphetamine]",SERT/DA,DAT [2],80
same,EC50,SERT,1.94 µM
same,SERT/NET,NET,120
same,passive permeation over 24 h,"[3]; 10 mg/ml in 10 mM PBS, no current",3.94±0.53 μg/cm^2
same,flux enhancement compared to PG alone,"[3]; 20 mg/mL, 5% w/w oleic acid, not significant",~40%
same,flux as percent of the control group,"[3]; 20 mg/mL, 5% w/w oleyl alcohol in PG",389%
same,flux as percent of the control group,"[3]; 20 mg/mL, 10% w/w oleyl alcohol in PG",370%
same,increase of cumulative drug permeation by iontophoresis versus passive,"[3]; PBS, 24 h period",548 fold
same,enhancement of skin permeation by ablative laser versus passive,"[3]; PG, 24 h",508 times
same,lag time,"[3]; anodal iontophoresis, x-intercept of linear portion of permeation profile",around 3.5 h
same,flux,[3]; 5% oleic acid in PG,109.8±17.94 μg/cm^2/h
same,flux,[3]; 10% oleyl alcohol in PG,292.0±31.70 μg/cm^2/h
same,flux with 10% lauric acid versus propylene glycol alone,"[3]; 10% w/w lauric acid in PG, listed as 3-FA base",did not show significant difference
same,flux with 10% lauric acid versus propylene glycol alone,"[3]; 10% w/w lauric acid in PG, listed as 3-flouroamphetamine",did not impact the flux at all
same,calculated passive flux over 24 hours,[3]; passive,3784.62±173.52 μg/cm^2
same,percent permeated through the skin within 24 hours,"[3]; 20 mg/mL in PG, passive",41.4±1.18%
same,percent permeated through the skin within 24 hours,"[3]; 40 mg/mL in PG, passive",74.45±3.43%
same,enhancement by maltose microneedles versus control,"[3]; hydrochloride in PG, 24 h",7 fold
same,"permeation after 24 h, skin pre-treated with maltose microneedles","[3]; hydrochloride, solution in PG",7.35±4.87 μg/cm^2
same,passive permeation after 24 h,"[3]; hydrochloride, solution in propylene glycol (control)",1.03±0.17 μg/cm^2
same,passive permeation in PBS compared to PG,[3]; passive,approximately four
same,permeation over 24 hours with anodal iontophoresis,"[3]; salt form (hydrochloride), 10 mg/ml in PBS, 0.5 mA/cm^2 for 4 h, 24 h",2159.43±301.14 μg/cm^2
same,permeation after skin microporation by ablative laser,"[3]; solution in PG, P.L.E.A.S.E. laser, 24 h",523.24±86.79 μg/cm^2
same,predicted skin irritation of formulations reaching therapeutic flux,EPIDERM,irritant
Cc1cccc(CC(C)N)c1 (centres unmarked) [PAL-314],SERT/DA,DAT [2],6.5
same,EC50,SERT,0.218 µM
same,SERT/NET,NET,11.9
CC(N)Cc1ccc(OC(F)(F)F)cc1 (centres unmarked) [PAL-309],SERT/DA,DAT [2],0.0
same,EC50,SERT,0.0822 µM
same,SERT/NET,NET,0.2
CCc1ccc(CC(C)N)cc1 (centres unmarked) [PAL-335],SERT/DA,DAT [2],0.1
same,EC50,SERT,0.0361 µM
same,SERT/NET,NET,0.3
Cc1ccccc1CC(C)N (centres unmarked) [PAL-315],SERT/DA,DAT [2],7.7
same,EC50,SERT,0.973 µM
same,SERT/NET,NET,26.3
CC(N)Cc1cccc(C(F)(F)F)c1 (centres unmarked) [PAL-677],SERT/DA,DAT [2],0.1
same,EC50,SERT,0.104 µM
same,SERT/NET,NET,0.6
CC(N)Cc1ccc(F)cc1 (centres unmarked) [PAL-303],SERT/DA,DAT [2],18.2
same,EC50,SERT,0.939 µM
same,SERT/NET,NET,33.5
"c1ccc(CC2CCNCC2)cc1 [4-benzylpiperidine, 4-Benzylpiperidine]",average amount permeated across human dermatomed skin,[3]; [5],1824±425 μg/cm^2
same,share of drug permeated across human dermatomed skin,[3]; [5],about 18%
same,average amount permeated across dermatomed human skin,"[3]; 100 μL of 1 mg/ml in PG, passive, 24 h",33±8 μg/cm^2
same,average amount permeated across dermatomed human skin,"[3]; 100 μL of 10 mg/ml in PG, passive, 24 h",288±71 μg/cm^2
CCc1cccc(CC(C)N)c1 (centres unmarked) [PAL-1386],SERT/DA,DAT [2],1.3
same,EC50,SERT,0.16 µM
same,SERT/NET,NET,1.4
"CC1NCCOC1c1ccccc1 (centres unmarked) [phenmetrazine, Phenmetrazine, reference compound]",flux increase compared to group without enhancer,"[3]; 40 mg/mL, 5% w/w oleyl alcohol in PG",~10 folds
same,efficiency of oleyl alcohol as permeation enhancer over oleic acid,"[3]; 40 mg/mL, both enhancers at 5% w/w",53.4%
same,flux enhancement by oleyl alcohol compared to lauric acid,"[3]; 40 mg/mL, irrespective of oleyl alcohol concentration",~240%
same,flux enhancement compared to propylene glycol only group,[3]; 5% w/w oleic acid in PG,7.6 fold
same,flux enhancement compared to propylene glycol only group,[3]; 10% w/w lauric acid in PG,3.4 fold
same,flux enhancement compared to propylene glycol only group,[3]; 10% w/w oleyl alcohol in PG,~10 fold
same,flux enhancement compared to propylene glycol only group,"[3]; 10% w/w oleyl alcohol in PG, listed as phenmetrazine base",11.4 fold
same,calculated passive flux over 24 hours,[3]; passive,359.05±82.36 μg/cm^2
same,percent permeated through the skin within 24 hours,"[3]; 20 mg/mL in PG, passive",1.86±0.41%
same,percent permeated through the skin within 24 hours,"[3]; 40 mg/mL in PG, passive",5.74±1.32%
same,predicted skin irritation of formulations reaching therapeutic flux,EPIDERM,irritant
Phenmetrazine fumarate [reference compound],passive permeation over 24 hours,[3]; 10 mg/mL in propylene glycol,no permeation
CC(N)Cc1ccc(Cl)cc1 (centres unmarked) [PAL-24],SERT/DA,DAT [2],0.3
same,EC50,SERT,0.0215 µM
same,SERT/NET,NET,0.9
CC(N)Cc1ccccc1C(F)(F)F (centres unmarked) [PAL-307],EC50,SERT,> 10 µM
CC(N)Cc1cccc(Cl)c1 (centres unmarked) [PAL-304],EC50,DAT [4],0.0118 µM
same,SERT/DA,DAT [2],10.2
same,EC50,SERT; read-out: EC50 SERT release,0.12 µM
same,SERT/NET,NET,12.8
Cc1ccc(CC(C)N)cc1 (centres unmarked) [PAL-313],SERT/DA,DAT [2],1.2
same,EC50,SERT,0.0534 µM
same,SERT/NET,NET,2.4
COc1cccc(CC(C)N)c1 (centres unmarked) [PAL-161],SERT/DA,DAT [2],3.2
same,EC50,SERT,0.328 µM
same,SERT/NET,NET,5.7
